Test results published in US20110110860A1, “MODULATION OF LDL RECEPTOR GENE EXPRESSION WITH DOUBLE-STRANDED RNAS TARGETING THE LDL RECEPTOR GENE PROMOTER” (The Board of Regents of the University of Texas System, priority 2009, published 2011).
One block for each compound: values may come before it.

Key:
[1] = system: interferon responsive genes (OAST, OAS2, MX1, IFITM1, ISGF3γ); experiment: Analysis of interferon responsive genes by qRT-PCR in HepG2 cells; format: cell-based, human; conditions: agRNAs 50 nM, poly I:C 0-100 ng/mL, HepG2, three days after transfection
Experimental: (§1) Analysis of Interferon Responsive Genes. mRNA levels of the interferon responsive genes including OAST, OAS2, MX1, IFITM1, and ISGF3γ were measured by qRT-PCR. agRNAs (50 nM) and Poly I:C (0-100 ng/mL; Sigma) were transfected into HepG2 cells using the cationic lipid as described above. Three days after transfection, total RNAs from dsRNA-treated, poly I:C-treated, or untreated samples were isolated using TRIzol. The RNAs were treated with DNase I at 25° C. for 10 min, followed by reverse transcription reaction at 37° C. for 2 h. qPCR was performed using iTaq SYBR Supermix and primers specific for the interferon responsive genes (Interferon Response Detection Kit; System Biosciences). LDLR protein levels on Day 4 were also measured by western blot analysis.

[2] = system: LDLR; experiment: Western analysis of LDLR protein expression in HepG2 cells after transfection of duplex RNAs; format: cell-based, human; conditions: for effect on LDLR expression (in words): 50 nM, western analysis
Experimental: Cell culture and transfection. Unmodified, 2′-O-methyl, and 2′-fluoro RNAs with two 2′-deoxythymidine bases at the 3′ end were obtained from Integrated DNA Technologies or Alnylam Pharmaceuticals. HepG2 (American Type Culture Collection (ATCC)) and fibroblast cells (GM04281; Coriell) were cultured with Minimum Essential Medium Eagle (MEM; Sigma) supplemented with 10% FBS, 1% MEM non-essential amino acids (Sigma), and 1 mM sodium pyruvate (Sigma). HuH-7 (Japanese Collection of Research Bioresources) and SW480 cells (ATCC) were cultured with Dulbecco's Modified Eagle's Medium (Sigma) supplemented with 10% FBS and 1 mM sodium pyruvate. Cells were plated in 6-well plates at 120,000 (HepG2 and HuH-7), 60,000 (fibroblast), or 150,000 (SW480) cells/well 2 days before transfection. Duplex RNAs were transfected into cells using Lipofectamine RNAiMAX (Invitrogen). Cationic lipid (2.4 μL for 50 nM dsRNA) was added to OptiMEM (Invitrogen) containing oligonucleotides and the oligonucleotide-lipid mixture (250 μL) was incubated at room temperature for 20 min. OptiMEM (for HepG2 and fibroblast) or full media (for HuH-7 and SW480) was added to a final volume of 1.25 mL and the mixture was applied to cells. Media was exchanged 1 day later with fresh supplemented media (2 mL).
(§2) Analysis of LDLR protein expression. Cells were harvested 4 days after transfection for western blotting analysis. Cells were detached from plates using cell dissociation solution (Sigma) and lysed with lysis buffer (50 mM Tris-HCl, 120 mM NaCl, 0.5% NP-40, 1 mM EDTA, 1 mM DTT, and protease inhibitor (Calbiochem)). Protein concentrations were quantified with BCA assay kit (Thermo Scientific). SDS-PAGE was performed using 7.5% Tris-HCl gels (Bio-Rad). Gels were run at 100 V for 60 min. After gel electrophoresis, proteins were transferred to nitrocellulose membrane (Hybond-C-Extra; GE Healthcare) at 100 V for 2 h. After blocking the membrane with 5% non-fat dry milk/TBST at room temperature for 1 h, the membrane was incubated with primary antibody specific for LDLR or β-actin at the following dilution ratio: anti-LDLR antibody (ab52818; 1:10,000; abcam), anti-β-actin antibody (1:20,000; Sigma). HRP-conjugated anti-rabbit (1:10,000; Jackson ImmunoResearch) or anti-mouse (1:20,000; Sigma) secondary antibody was used for visualizing proteins using SuperSignal West Pico Chemiluminescent Substrate (Thermo Scientific). Protein bands were quantified using ImageJ software.
as §1

[3] = target: T1, AGO2 (Homo sapiens, UniProt Q9UKV8); experiment: RNA immunoprecipitation (RIP) of AGO2 on the LDLR antisense transcript; format: cell-based; conditions: 50 nM, HepG2 cells
T1 construct: endogenous in cells; host or cells: HepG2
T1 sequence (Q9UKV8 whole entry): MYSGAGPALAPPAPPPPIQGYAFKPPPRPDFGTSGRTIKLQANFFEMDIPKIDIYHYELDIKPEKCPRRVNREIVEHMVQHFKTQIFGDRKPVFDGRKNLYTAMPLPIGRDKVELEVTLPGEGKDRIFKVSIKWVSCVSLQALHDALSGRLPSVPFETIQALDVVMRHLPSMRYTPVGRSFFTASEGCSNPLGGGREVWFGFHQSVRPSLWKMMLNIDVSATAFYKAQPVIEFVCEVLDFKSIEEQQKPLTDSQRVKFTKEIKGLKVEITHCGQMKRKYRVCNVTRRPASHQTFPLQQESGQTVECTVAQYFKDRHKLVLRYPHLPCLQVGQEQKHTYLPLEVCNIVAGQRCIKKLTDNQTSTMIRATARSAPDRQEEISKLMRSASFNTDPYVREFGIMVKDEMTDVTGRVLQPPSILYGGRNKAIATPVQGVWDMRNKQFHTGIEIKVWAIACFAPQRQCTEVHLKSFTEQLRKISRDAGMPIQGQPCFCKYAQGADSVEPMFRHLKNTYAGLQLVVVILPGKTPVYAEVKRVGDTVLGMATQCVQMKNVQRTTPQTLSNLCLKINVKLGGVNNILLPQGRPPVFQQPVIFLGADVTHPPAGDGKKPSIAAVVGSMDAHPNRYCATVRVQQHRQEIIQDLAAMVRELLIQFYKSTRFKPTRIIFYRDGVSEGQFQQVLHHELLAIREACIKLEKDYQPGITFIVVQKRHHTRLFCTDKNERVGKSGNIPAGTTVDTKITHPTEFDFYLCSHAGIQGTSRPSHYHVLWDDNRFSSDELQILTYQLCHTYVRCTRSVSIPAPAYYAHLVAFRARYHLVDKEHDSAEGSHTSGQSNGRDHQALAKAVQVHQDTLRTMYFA
Experimental: Chromatin Immunoprecipitation (ChIP)/RNA Immunoprecipitation (RIP). HepG2 cells were seeded at 1,080,000 cells in 15 cm dishes 2 days before transfection for ChIP or RIP experiments. Two dishes were treated with activating agRNAs (LDLR-24(U/U) and LDLR-28(U/U)) or mismatch controls (LDLRmm1, LDLRmm3, and LDLRmm4) (50 nM). Four days after transfection, cells were crosslinked with 1% formaldehyde. Cells were recovered by scraping and nuclei were isolated using hypotonic lysis buffer (5 mL; 10 mM Tris-HCl (pH 7.5), 10 mM NaCl, 3 mM MgCl2, 0.5% NP-40). Nuclei were lysed in lysis buffer (1 mL; 1% SDS, 10 mM EDTA, 50 mM Tris-HCl (pH 8.1), 1× Roche protease inhibitors cocktail, 40 U/mL RNasin Plus RNase Inhibitor (Promega)) and sonicated (2 pulses, 20% power, 20 sec).
The cell lysate (100 μL) was incubated overnight with antibodies in immunoprecipitation buffer (1 mL; 0.01% SDS, 1.1% Triton-X-100, 1.2 mM EDTA, 16.7 mM Tris-HCl (pH 8.1), 167 mM NaCl, and 1× Roche protease inhibitors cocktail, 40 U/mL RNasin Plus RNase Inhibitor). Monoclonal anti-RNAP II (2 μg; Millipore) and polyclonal anti-H3K27me3 (2 μg; Millipore) antibodies were used for ChIP experiments. Polyclonal anti-AGO1 (2 μg; Millipore) and polyclonal anti-AGO2 (2 μg; Millipore) antibodies were used for RIP experiments. […] PCR products were analyzed on 2.5% agarose gel and stained with ethidium bromide.

[4] = system: LDLR; experiment: Combination treatment with 25-hydroxycholesterol and agRNAs (western, HepG2); format: cell-based, human; conditions: 25-hydroxycholesterol 2 μM
Experimental: as §2
Combination treatment with 25-hydroxycholesterol and agRNAs. dsRNAs (50 nM) were transfected into HepG2 cells as described above (Day 0), and the media were exchanged one day later. […]

interferon-responsive gene expression (OAST, OAS2, MX1, IFITM1, ISGF3γ) [1]: substantially increases
Compound: polyinosinic-polycytidylic acid [poly I:C]
effect of poly I:C on LDLR expression ([2]; any concentrations tested (0-100 ng/mL), Day 4 western): did not upregulate LDLR expression

Compound: LDLR-35: agRNA duplex; sense UCACAUUGAAAUGCUGUAAdTdT, antisense UUACAGCAUUUCAAUGUGAdTdT (sense UCACAUUGAAAUGCUGUAADTDT; antisense UUACAGCAUUUCAAUGUGADTDT; chemistry not fully specified)
effect on LDLR expression (in words) [2]: appeared to reduce gene expression

Compound: LDLRmm4: mismatch duplex, three mismatches outside seed sequence; sense UGCUGUAAAUGAGGAGCGCdTdT, antisense GCGCUCCUCAUUUACAGCAdTdT (sense UGCUGUAAAUGAGGAGCGCDTDT; antisense GCGCUCCUCAUUUACAGCADTDT; chemistry not fully specified)
recruitment of AGO2 to the LDLR antisense transcript [3]: recruitment of AGO2
effect on LDLR expression (in words) [2]: activation

Compound: LDLR-18: agRNA duplex; sense AAAUGACGUGGGCCCCGAGdTdT, antisense CUCGGGGCCCACGUCAUUUdTdT (sense AAAUGACGUGGGCCCCGAGDTDT; antisense CUCGGGGCCCACGUCAUUUDTDT; chemistry not fully specified)
effect on LDLR expression (in words) [2]: appeared to reduce gene expression

Compound: LDLRmm3: mismatch duplex disrupting predicted seed sequence; sense UCCAGAAAAUGACGUGGGCdTdT, antisense GCCCACGUCAUUUUCUGGAdTdT (sense UCCAGAAAAUGACGUGGGCDTDT; antisense GCCCACGUCAUUUUCUGGADTDT; chemistry not fully specified)
recruitment of AGO2 to the LDLR antisense transcript [3]: not

Compound: LDLR-65: agRNA duplex; sense CACUGCAAACUCCUCCCCCdTdT, antisense GGGGGAGGAGUUUGCAGUGdTdT (sense CACUGCAAACUCCUCCCCCDTDT; antisense GGGGGAGGAGUUUGCAGUGDTDT; chemistry not fully specified)
effect on LDLR expression (in words) [2]: appeared to reduce gene expression

Compound: C[C@H](CCCC(C)(C)O)[C@H]1CC[C@H]2[C@@H]3CC=C4C[C@@H](O)CC[C@]4(C)[C@H]3CC[C@]12C [25-hydroxycholesterol]
baseline LDLR expression with 25-hydroxycholesterol alone [4]: lowers baseline LDLR expression
